Article PMC3708431 (Evidence-based Complementary and Alternative Medicine : eCAM, 2013)

Legend:
acetylcholinesterase = biological target: T1, acetylcholinesterase (Electrophorus electricus, UniProt O42275); test: Ellman spectrophotometric assay at […] nm, electric eel enzyme; type: biochemical; settings: read-out: Antiacetylcholinesterase assay, IC50
T1 construct: gene ache; Type-VI-S, EC 3.1.1.7

5-lipoxygenase = biological target: T2, 5-lipoxygenase (Homo sapiens, UniProt P09917); test: spectrophotometric enzyme assay at […] nm, linoleic acid substrate, human recombinant enzyme; type: biochemical; settings: read-out: Anti-inflammatory assay 5-LOX, IC50
T2 construct: gene ALOX5
T2 sequence (P09917 1-674): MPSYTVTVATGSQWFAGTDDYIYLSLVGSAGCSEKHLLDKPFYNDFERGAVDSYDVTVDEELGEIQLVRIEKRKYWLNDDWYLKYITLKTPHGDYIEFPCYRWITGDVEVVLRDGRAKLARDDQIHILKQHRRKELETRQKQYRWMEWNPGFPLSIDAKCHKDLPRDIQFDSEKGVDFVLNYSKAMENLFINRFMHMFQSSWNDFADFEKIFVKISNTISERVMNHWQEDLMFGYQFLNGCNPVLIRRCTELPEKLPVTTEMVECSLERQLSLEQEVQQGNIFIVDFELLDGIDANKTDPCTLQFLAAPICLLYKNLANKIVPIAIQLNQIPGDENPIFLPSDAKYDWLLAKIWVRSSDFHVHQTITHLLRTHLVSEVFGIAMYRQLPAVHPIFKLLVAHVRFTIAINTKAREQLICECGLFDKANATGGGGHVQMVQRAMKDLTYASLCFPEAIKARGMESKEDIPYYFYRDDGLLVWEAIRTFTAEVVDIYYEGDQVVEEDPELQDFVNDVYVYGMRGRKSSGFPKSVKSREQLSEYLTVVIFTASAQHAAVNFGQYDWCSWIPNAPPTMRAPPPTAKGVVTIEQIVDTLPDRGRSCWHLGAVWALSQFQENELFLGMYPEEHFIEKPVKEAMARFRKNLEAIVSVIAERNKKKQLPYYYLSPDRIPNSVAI

T1 sequence (O42275 24-633): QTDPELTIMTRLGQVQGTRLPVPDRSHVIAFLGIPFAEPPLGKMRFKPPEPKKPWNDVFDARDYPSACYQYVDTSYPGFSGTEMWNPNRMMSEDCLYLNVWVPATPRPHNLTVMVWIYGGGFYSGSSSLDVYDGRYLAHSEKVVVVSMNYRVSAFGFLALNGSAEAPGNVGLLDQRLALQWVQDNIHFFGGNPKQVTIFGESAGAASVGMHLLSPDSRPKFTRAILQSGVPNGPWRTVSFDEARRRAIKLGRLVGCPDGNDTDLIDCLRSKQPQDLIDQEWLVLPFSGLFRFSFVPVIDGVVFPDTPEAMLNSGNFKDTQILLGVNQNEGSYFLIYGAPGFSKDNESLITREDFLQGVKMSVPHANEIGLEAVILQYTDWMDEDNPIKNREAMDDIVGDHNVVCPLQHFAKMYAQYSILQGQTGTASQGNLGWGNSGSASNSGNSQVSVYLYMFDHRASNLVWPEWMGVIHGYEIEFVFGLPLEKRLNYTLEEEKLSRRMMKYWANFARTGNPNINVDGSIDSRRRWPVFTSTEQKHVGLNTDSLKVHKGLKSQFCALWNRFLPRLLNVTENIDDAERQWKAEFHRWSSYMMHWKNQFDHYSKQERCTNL

COc1cc2ccc(=O)oc2cc1O [SC, 7-hydroxy-6 methoxycoumarin]
IC50 (acetylcholinesterase): 270 ± 0.02 µM | IC50 (5-lipoxygenase): 1.76 ± 0.01 µM
